pKi: −log10 of the molar value.
Experiments:
[1] = The opioid receptor affinity(Ki) was evaluated by competition with [3H]DSLET (delta 2) on guinea pig brain membranes
[2] = The opioid receptor affinity(Ki) was evaluated by competition with [3H]-DPDPE (delta 1) on guinea pig brain membranes

SMILES	pKi [1]	pKi [2]
O=C(O)c1cccc2c3c([nH]c12)[C@@H]1Oc2c(O)ccc4c2C12CCN(CC1CC1)C(C4)[C@]2(O)C3 (stereo partly drawn) [22-cyclopropylmethyl-2,16-dihydroxy-(2S,13R)-14-oxa-11,22-diazaheptacyclo[13.9.1.01,13.02,21.04,12.05,10.019,25]pentacosa-4(12),5(10),6,8,15(25),16,18-heptaene-9-carboxylic acid]	10.80	10.89
O=C(O)C[C@@H](NC(=O)c1cccc2c3c([nH]c12)[C@@H]1Oc2c(O)ccc4c2C12CCN(CC1CC1)C(C4)[C@]2(O)C3)C(=O)O (stereo partly drawn) [2-[22-cyclopropylmethyl-2,16-dihydroxy-(2S,13R)-14-oxa-11,22-diazaheptacyclo[13.9.1.01,13.02,21.04,12.05,10.019,25]pentacosa-4(12),5(10),6,8,15(25),16,18-heptaen-9-ylcarboxamido]-(2R)-butanedioic acid]	9.39	9.85
NCCCC[C@@H](NC(=O)c1cccc2c3c([nH]c12)[C@@H]1Oc2c(O)ccc4c2C12CCN(CC1CC1)C(C4)[C@]2(O)C3)C(=O)O (stereo partly drawn) [6-amino-2-[22-cyclopropylmethyl-2,16-dihydroxy-(2S,13R)-14-oxa-11,22-diazaheptacyclo[13.9.1.01,13.02,21.04,12.05,10.019,25]pentacosa-4(12),5(10),6,8,15(25),16,18-heptaen-9-ylcarboxamido]-(2R)-hexanoic acid]	9.12	9.52
NCCC[C@@H](NC(=O)c1cccc2c3c([nH]c12)[C@@H]1Oc2c(O)ccc4c2C12CCN(CC1CC1)C(C4)[C@]2(O)C3)C(=O)O (stereo partly drawn) [5-amino-2-[22-cyclopropylmethyl-2,16-dihydroxy-(2S,13R)-14-oxa-11,22-diazaheptacyclo[13.9.1.01,13.02,21.04,12.05,10.019,25]pentacosa-4(12),5(10),6,8,15(25),16,18-heptaen-9-ylcarboxamido]-(2R)-pentanoic acid]	10.82	9.74
N=C(N)NCCC[C@@H](NC(=O)c1cccc2c3c([nH]c12)[C@@H]1Oc2c(O)ccc4c2C12CCN(CC1CC1)C(C4)[C@]2(O)C3)C(=O)O (stereo partly drawn) [5-amino(imino)methylamino-2-[22-cyclopropylmethyl-2,16-dihydroxy-(2S,13R)-14-oxa-11,22-diazaheptacyclo[13.9.1.01,13.02,21.04,12.05,10.019,25]pentacosa-4(12),5(10),6,8,15(25),16,18-heptaen-9-ylcarboxamido]-(2R)-pentanoic acid]	10.08	9.80
O=C(O)CNC(=O)c1cccc2c3c([nH]c12)[C@@H]1Oc2c(O)ccc4c2C12CCN(CC1CC1)C(C4)[C@]2(O)C3 (stereo partly drawn) [32+/-82-[22-cyclopropylmethyl-2,16-dihydroxy-(2S,13R)-14-oxa-11,22-diazaheptacyclo[13.9.1.01,13.02,21.04,12.05,10.019,25]pentacosa-4(12),5(10),6,8,15(25),16,18-heptaen-9-ylcarboxamido]acetic acid]		11.30
